Patent publication EP4691458A1, “SELF-MICROEMULSION PHARMACEUTICAL PREPARATION COMPOSITION CONTAINING ALK KINASE INHIBITOR AND PREPARATION METHOD THEREFOR” (Shouyao Holdings (Beijing) Co., Ltd., priority 2023, dated 2024)

What was measured:
[1] = Thermal stability of the compound of formula (I); assay type: physicochemical; details: degradation impurities generated at high temperatures
Procedure: (§1) The compound of formula (I) has strong hydrophobicity, poor water solubility, and significant pH dependence. It has high solubility at low pH (about 30 mg/ml at pH 1.2), and the solubility decreases sharply with increasing pH (about 10 ug/ml in water). […] Therefore, it is an urgent problem to overcome the shortcomings of the compound of formula (I), such as strong hydrophobicity, poor water solubility, and thermal instability, and to prepare it into a formulation with stable quality, good patient compliance, and wide clinical applicability.

[2] = Solubility of the compound of formula (I) at different pH; assay type: physicochemical
Procedure: as §1

thermal stability [1]: thermally unstable
solubility ([2]; in water): ~0.01 mg/mL
solubility ([2]; simulated gastric fluid, at pH 1.2): ~30 mg/mL
SMILES: COc1cc(N2CCC(N(C)C)CC2)ccc1Nc1nc2c(c(Nc3ccccc3S(=O)(=O)C(C)C)n1)CCN2 [compound of formula (I), N^2-(4-(4-(dimethylamino)piperidin-1-yl)-2-methoxyphenyl)-N^4-(2-(isopropylsulfonyl)phenyl)-6,7-dihydro-5H-pyrrolo[2,3-d]pyrimidine-2,4-diamine]
